According to the supplement of paper PMC10307832:

Key:
Assay in all cases: relative viability (nuclei count vs DMSO), 5 days (fraction); higher = more cells survive
Everolimus + Palbociclib = compound: CO[C@H]1C[C@@H]2CC[C@@H](C)[C@@](O)(O2)C(=O)C(=O)N2CCCC[C@H]2C(=O)O[C@H]([C@H](C)C[C@@H]2CC[C@@H](OCCO)[C@H](OC)C2)CC(=O)[C@H](C)/C=C(\C)[C@@H](O)[C@@H](OC)C(=O)[C@H](C)C[C@H](C)/C=C/C=C/C=C/1C [Everolimus] + CC(=O)c1c(C)c2cnc(Nc3ccc(N4CCNCC4)cn3)nc2n(C2CCCC2)c1=O [Palbociclib] (partner 0.5 µM)
Procedure, shortened: (§1)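 Five library-drug doses in √10 steps were combined with a fixed anchor-drug dose, or a single drug was given alone, by pin tool to lung cancer cell lines in 1536-well plates the day after seeding. Nuclei were stained and counted after 5 days. Relative viability is the nuclei count in treated wells over that in vehicle wells, taken as the median of duplicate plates.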

Everolimus + Luminespib = compound: CO[C@H]1C[C@@H]2CC[C@@H](C)[C@@](O)(O2)C(=O)C(=O)N2CCCC[C@H]2C(=O)O[C@H]([C@H](C)C[C@@H]2CC[C@@H](OCCO)[C@H](OC)C2)CC(=O)[C@H](C)/C=C(\C)[C@@H](O)[C@@H](OC)C(=O)[C@H](C)C[C@H](C)/C=C/C=C/C=C/1C [Everolimus] + CCNC(=O)c1noc(-c2cc(C(C)C)c(O)cc2O)c1-c1ccc(CN2CCOCC2)cc1 [Luminespib] (partner 0.01 µM)
Procedure, shortened: as §1

Everolimus + OSI-027 = compound: CO[C@H]1C[C@@H]2CC[C@@H](C)[C@@](O)(O2)C(=O)C(=O)N2CCCC[C@H]2C(=O)O[C@H]([C@H](C)C[C@@H]2CC[C@@H](OCCO)[C@H](OC)C2)CC(=O)[C@H](C)/C=C(\C)[C@@H](O)[C@@H](OC)C(=O)[C@H](C)C[C@H](C)/C=C/C=C/C=C/1C [Everolimus] + COc1cccc2cc(-c3nc([C@H]4CC[C@H](C(=O)O)CC4)n4ncnc(N)c34)[nH]c12 [OSI-027] (partner 0.5 µM)
Procedure, shortened: as §1

Everolimus + Pictilisib = compound: CO[C@H]1C[C@@H]2CC[C@@H](C)[C@@](O)(O2)C(=O)C(=O)N2CCCC[C@H]2C(=O)O[C@H]([C@H](C)C[C@@H]2CC[C@@H](OCCO)[C@H](OC)C2)CC(=O)[C@H](C)/C=C(\C)[C@@H](O)[C@@H](OC)C(=O)[C@H](C)C[C@H](C)/C=C/C=C/C=C/1C [Everolimus] + CS(=O)(=O)N1CCN(Cc2cc3nc(-c4cccc5[nH]ncc45)nc(N4CCOCC4)c3s2)CC1 [Pictilisib] (partner 1 µM)
Procedure, shortened: as §1

| Cell Line | relative viability (Everolimus + Palbociclib; first compound 0.01 µM) | relative viability (Everolimus + Palbociclib; first compound 0.03162 µM) | relative viability (Everolimus + Palbociclib; first compound 0.1 µM) | relative viability (Everolimus + Palbociclib; first compound 0.3162 µM) | relative viability (Everolimus + Palbociclib; first compound 1 µM) | relative viability (Everolimus + Luminespib; first compound 0.01 µM) | relative viability (Everolimus + Luminespib; first compound 0.03162 µM) | relative viability (Everolimus + Luminespib; first compound 0.1 µM) | relative viability (Everolimus + Luminespib; first compound 0.3162 µM) | relative viability (Everolimus + Luminespib; first compound 1 µM) | relative viability (Everolimus + OSI-027; first compound 0.01 µM) | relative viability (Everolimus + OSI-027; first compound 0.03162 µM) | relative viability (Everolimus + OSI-027; first compound 0.1 µM) | relative viability (Everolimus + OSI-027; first compound 0.3162 µM) | relative viability (Everolimus + OSI-027; first compound 1 µM) | relative viability (Everolimus + Pictilisib; first compound 0.01 µM) | relative viability (Everolimus + Pictilisib; first compound 0.03162 µM) | relative viability (Everolimus + Pictilisib; first compound 0.1 µM) | relative viability (Everolimus + Pictilisib; first compound 0.3162 µM) | relative viability (Everolimus + Pictilisib; first compound 1 µM) |
| --- | --- | --- | --- | --- | --- | --- | --- | --- | --- | --- | --- | --- | --- | --- | --- | --- | --- | --- | --- | --- |
| LXF-289 | 0.583 | 0.542 | 0.504 | 0.504 | 0.476 | 0.59 | 0.512 | 0.582 | 0.641 | 0.66 | 0.654 | 0.604 | 0.529 | 0.572 | 0.576 | 0.579 | 0.624 | 0.513 | 0.555 | 0.509 |
| CAL-12T | 0.461 | 0.236 | 0.152 | 0.217 | 0.388 | 0.146 | 0.138 | 0.173 | 0.159 | 0.212 | 0.221 | 0.299 | 0.25 | 0.309 | 0.296 | 0.324 | 0.26 | 0.377 | 0.287 | 0.304 |
| COR-L23 | 0.224 | 0.27 | 0.233 | 0.271 | 0.218 | 0.417 | 0.377 | 0.461 | 0.431 | 0.268 | 0.334 | 0.352 | 0.374 | 0.419 | 0.367 | 0.354 | 0.409 | 0.378 | 0.366 | 0.483 |
| NCI-H1755 | 0.407 | 0.395 | 0.378 | 0.361 | 0.356 | 0.372 | 0.312 | 0.347 | 0.347 | 0.244 | 0.655 | 0.63 | 0.573 | 0.647 | 0.593 | 0.334 | 0.381 | 0.292 | 0.354 | 0.329 |
| NCI-H1437 | 0.319 | 0.313 | 0.253 | 0.239 | 0.248 | 1.12 | 1.11 | 1.08 | 1.06 | 0.948 | 0.379 | 0.363 | 0.344 | 0.365 | 0.487 | 0.159 | 0.149 | 0.135 | 0.165 | 0.18 |
| NCI-H2085 | 0.413 | 0.362 | 0.347 | 0.335 | 0.284 | 0.258 | 0.28 | 0.349 | 0.319 | 0.304 | 0.457 | 0.454 | 0.257 | 0.476 | 0.438 | 0.346 | 0.358 | 0.368 | 0.348 | 0.377 |
| H3255 | 0.314 | 0.294 | 0.319 | 0.322 | 0.307 | 0.594 | 0.584 | 0.479 | 0.504 | 0.498 | 0.531 | 0.426 | 0.381 | 0.402 | 0.339 | 0.35 | 0.332 | 0.302 | 0.294 | 0.281 |
| NCI-H650 | 0.368 | 0.262 | 0.279 | 0.278 | 0.248 | 0.858 |  | 0.511 | 0.609 | 0.345 | 0.372 |  | 0.446 | 0.392 | 0.363 | 0.688 |  | 0.498 | 0.569 | 0.505 |
| LCLC-103H | 0.511 | 0.49 | 0.465 | 0.453 | 0.546 | 0.839 | 0.819 | 0.689 | 0.741 | 0.733 | 0.347 | 0.385 | 0.402 | 0.367 | 0.366 | 0.512 | 0.459 | 0.471 | 0.479 | 0.466 |
| LOU-NH91 | 0.533 | 0.561 | 0.55 | 0.54 | 0.547 | 0.284 | 0.307 | 0.317 | 0.321 | 0.314 | 0.529 | 0.57 | 0.531 | 0.524 | 0.516 | 0.516 | 0.484 | 0.462 | 0.485 | 0.465 |
| NCI-H1650 | 0.305 | 0.293 | 0.304 | 0.278 | 0.238 | 0.167 | 0.207 | 0.184 | 0.208 | 0.19 | 0.489 | 0.444 | 0.468 | 0.484 | 0.574 | 0.47 | 0.473 | 0.477 | 0.515 | 0.469 |
| NCI-H3122 | 0.166 | 0.178 | 0.169 | 0.17 | 0.133 | 0.105 | 0.0862 | 0.0973 | 0.113 | 0.0788 | 0.463 | 0.579 | 0.315 | 0.454 | 0.488 | 0.364 | 0.421 | 0.288 | 0.372 | 0.348 |
| PC-3 [JPC-3] | 0.579 | 0.497 | 0.548 |  | 0.545 | 0.466 | 0.517 | 0.493 | 0.372 | 0.474 | 0.7 | 0.602 | 0.588 | 0.512 | 0.631 | 0.581 | 0.585 | 0.516 | 0.622 | 0.53 |
| NCI-H1651 | 0.474 | 0.405 | 0.363 | 0.351 | 0.341 | 0.589 | 0.531 | 0.612 | 0.575 | 0.567 | 0.411 | 0.439 | 0.384 | 0.41 | 0.58 | 0.368 | 0.324 | 0.352 | 0.427 | 0.39 |
| NCI-H2087 | 0.235 | 0.195 | 0.163 | 0.217 | 0.245 | 0.168 | 0.205 | 0.146 | 0.143 | 0.15 | 0.356 | 0.327 | 0.388 | 0.49 | 0.233 | 0.502 | 0.595 | 0.48 | 0.722 | 0.591 |
